Measured values as given in patent US9150575B2, “Piperidinylpyrazolopyridine derivative” (Daiichi Sankyo Company, Limited, priority 2012, dated 2015).

Target: T1, LCAT (Homo sapiens, UniProt P04180)
T1 construct: The obtained fraction was dialyzed against phosphate-buffered saline (pH 7.4) and used as an enzyme source and an acceptor for LCAT; from tissue; host or cells: HDL3 fraction (1.125<specific gravity<1.210 g/mL) of plasma from a healthy person
T1 sequence (P04180 25-440): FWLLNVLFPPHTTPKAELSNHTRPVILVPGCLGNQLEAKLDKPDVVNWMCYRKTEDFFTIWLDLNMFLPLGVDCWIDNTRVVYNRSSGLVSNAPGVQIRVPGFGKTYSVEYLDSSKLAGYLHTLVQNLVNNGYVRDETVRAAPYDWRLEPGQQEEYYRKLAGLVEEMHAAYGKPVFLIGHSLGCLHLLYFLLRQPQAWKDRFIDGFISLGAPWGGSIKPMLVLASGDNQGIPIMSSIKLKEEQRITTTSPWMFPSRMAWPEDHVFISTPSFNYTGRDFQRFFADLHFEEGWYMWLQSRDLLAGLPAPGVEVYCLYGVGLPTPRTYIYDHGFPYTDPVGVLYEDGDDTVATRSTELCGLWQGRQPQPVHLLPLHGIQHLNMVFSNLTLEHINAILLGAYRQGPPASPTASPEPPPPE
Assay: LCAT Activity Measurement (In Vitro)
Format: biochemical
Conditions: EC50 of LCAT activation; HDL3 fraction from plasma of a healthy person as enzyme source and acceptor; [14C]cholesterol; 37° C., approximately 16 hours
Experimental: A fraction composed of HDL3 (1.125<specific gravity<1.210 g/mL) was obtained from the plasma of a healthy person by density gradient centrifugation. The obtained fraction was dialyzed against phosphate-buffered saline (pH 7.4) and used as an enzyme source and an acceptor for LCAT. Each test drug was prepared by dissolution in dimethyl sulfoxide. [14C]Cholesterol containing DTNB (Ellman's reagent, final concentration: 0.5 mM), mercaptoethanol (final concentration: 12.5 mM), and 0.6% bovine serum albumin was added to phosphate-buffered saline (pH 7.4) containing 1 mg/mL HDL3, and the test drug was further added thereto at varying concentrations to adjust the whole amount to 80 μL. This mixture was incubated at 37° C. for approximately 16 hours. Then, a mixed solution of hexane and isopropanol (mixing ratio=3:2) was added thereto to stop the reaction. After stirring, the hexane layer was collected, and this layer was evaporated to dryness. A chloroform solution (concentration: 10 mg/mL) was added thereto, and the mixture was spotted onto a thin-layer silica gel plate and developed using a mixed solution of hexane, diethyl ether, and ethyl acetate (mixing ratio=85:15:2). The radioactivity of a portion corresponding to cholesterol oleate was measured using an imaging analyzer BAS-2500 (manufactured by Fujifilm Corp.). A sample non-supplemented with the test drug was similarly treated and assayed. The EC50 value of LCAT activation was calculated according to the expression given below relative to LCAT activity in the sample non-supplemented with the test drug.
wherein X represents the logarithm of the concentration of the test drug;
Y represents the responsiveness (LCAT activity) of the test drug;
Top represents the maximum value (maximum plateau);
Bottom represents the minimum value (minimum plateau); and
EC50 represents the 50% effective concentration.

## N#Cc1ccc(N2CCC(c3n[nH]c4c3C(O)(C(F)(F)F)CC(=O)N4)CC2)cn1 (stereo not shown) [Example 19, 5-{4-[4-Hydroxy-6-oxo-4-(trifluoromethyl)-4,5,6,7-tetrahydro-1H-pyrazolo[3,4-b]pyridin-3-yl]piperidin-1-yl}pyridine-2-carbonitrile]
  EC50: 650 nM

## Cc1nc(N2CCC(c3n[nH]c4c3C(O)(C(F)(F)F)CC(=O)N4)CC2)ccc1C#N (stereo not shown) [Example 20, 6-{4-[4-Hydroxy-6-oxo-4-(trifluoromethyl)-4,5,6,7-tetrahydro-1H-pyrazolo[3,4-b]pyridin-3-yl]piperidin-1-yl}-2-methylpyridine-3-carbonitrile]
  EC50: 290 nM

## N#Cc1ccc(N2CCC(c3n[nH]c4c3C(O)(C(F)(F)F)CC(=O)N4)CC2)nc1Cl (stereo not shown) [Example 21, 2-Chloro-6-{4-[4-hydroxy-6-oxo-4-(trifluoromethyl)-4,5,6,7-tetrahydro-1H-pyrazolo[3,4-b]pyridin-3-yl]piperidin-1-yl}pyridine-3-carbonitrile]
  EC50: 270 nM

## N#Cc1cccc(N2CCC(c3n[nH]c4c3C(O)(C(F)(F)F)CC(=O)N4)CC2)n1 (stereo not shown) [Example 22, 6-{4-[4-Hydroxy-6-oxo-4-(trifluoromethyl)-4,5,6,7-tetrahydro-1H-pyrazolo[3,4-b]pyridin-3-yl]piperidin-1-yl}pyridine-2-carbonitrile]
  EC50: 180 nM

## N#Cc1cccc(N2CCC(c3n[nH]c4c3C(O)(C(F)(F)F)CC(=O)N4)CC2)c1 (stereo not shown) [Example 23, 3-{4-[4-Hydroxy-6-oxo-4-(trifluoromethyl)-4,5,6,7-tetrahydro-1H-pyrazolo[3,4-b]pyridin-3-yl]piperidin-1-yl}benzonitrile]
  EC50: 120 nM

## O=C1CC(O)(C(F)(F)F)c2c(C3CCN(c4nc5ccccc5o4)CC3)n[nH]c2N1 (stereo not shown) [Example 24, 3-[1-(1,3-Benzoxazol-2-yl)piperidin-4-yl]-4-hydroxy-4-(trifluoromethyl)-1,4,5,7-tetrahydro-6H-pyrazolo[3,4-b]pyridin-6-one]
  EC50: 150 nM

## O=C1CC(O)(C(F)(F)F)c2c(C3CCN(c4nc5ccccc5s4)CC3)n[nH]c2N1 (stereo not shown) [Example 25, 3-[1-(1,3-Benzothiazol-2-yl)piperidin-4-yl]-4-hydroxy-4-(trifluoromethyl)-1,4,5,7-tetrahydro-6H-pyrazolo[3,4-b]pyridin-6-one]
  EC50: 200 nM

## Cc1cncc(N2CCC(c3n[nH]c4c3C(O)(C(F)(F)F)CC(=O)N4)CC2)n1 (stereo not shown) [Example 26, 4-Hydroxy-3-[1-(6-methylpyrazin-2-yl)piperidin-4-yl]-4-(trifluoromethyl)-1,4,5,7-tetrahydro-6H-pyrazolo[3,4-b]pyridin-6-one]
  EC50: 260 nM

## O=C1CC(O)(C(F)(F)F)c2c(C3CCN(c4cccnc4)CC3)n[nH]c2N1 (stereo not shown) [Example 27, 4-Hydroxy-3-[1-(pyridin-3-yl)piperidin-4-yl]-4-(trifluoromethyl)-1,4,5,7-tetrahydro-6H-pyrazolo[3,4-b]pyridin-6-one]
  EC50: 2410 nM

## COc1ccc(N2CCC(c3n[nH]c4c3C(O)(C(F)(F)F)CC(=O)N4)CC2)nn1 (stereo not shown) [Example 28, 4-Hydroxy-3-[1-(6-methoxypyridazin-3-yl)piperidin-4-yl]-4-(trifluoromethyl)-1,4,5,7-tetrahydro-6H-pyrazolo[3,4-b]pyridin-6-one]
  EC50: 300 nM

## O=C1CC(O)(C(F)(F)F)c2c(C3CCN(c4nccs4)CC3)n[nH]c2N1 (stereo not shown) [Example 29, 4-Hydroxy-3-[1-(1,3-thiazol-2-yl)piperidin-4-yl]-4-(trifluoromethyl)-1,4,5,7-tetrahydro-6H-pyrazolo[3,4-b]pyridin-6-one]
  EC50: 1880 nM

## COc1ccnc(N2CCC(c3n[nH]c4c3C(O)(C(F)(F)F)CC(=O)N4)CC2)n1 (stereo not shown) [Example 30, 4-Hydro-3-[1-(4-methoxypyrimidin-2-yl)piperidin-4-yl]-4-(trifluoromethyl)-1,4,5,7-tetrahydro-6H-pyrazolo[3,4-b]pyridin-6-one]
  EC50: 2460 nM

## N#Cc1ccc(N2CCC(c3n[nH]c4c3C(O)(C(F)(F)F)CC(=O)N4)CC2)nc1 (stereo not shown) [Example 31, 6-{4-[4-Hydroxy-6-oxo-4-(trifluoromethyl)-4,5,6,7-tetrahydro-1H-pyrazolo[3,4-b]pyridin-3-yl]piperidin-1-yl}pyridine-3-carbonitrile]
  EC50: 330 nM

## COc1ccc(N2CCC(c3n[nH]c4c3C(O)(C(F)(F)F)CC(=O)N4)CC2)cn1 (stereo not shown) [Example 32, 4-Hydroxy-3-[1-(6-methoxypyridin-3-yl)piperidin-4-yl]-4-(trifluoromethyl)-1,4,5,7-tetrahydro-6H-pyrazolo[3,4-b]pyridin-6-one]
  EC50: 300 nM

## N#Cc1ccnc(N2CCC(c3n[nH]c4c3C(O)(C(F)(F)F)CC(=O)N4)CC2)c1 (stereo not shown) [Example 33, 2-{4-[4-Hydroxy-6-oxo-4-(trifluoromethyl)-4,5,6,7-tetrahydro-1H-pyrazolo[3,4-b]pyridin-3-yl]piperidin-1-yl}pyridine-4-carbonitrile]
  EC50: 56 nM

## O=C1CC(O)(C(F)(F)F)c2c(C3CCN(c4ccc(Cl)nn4)CC3)n[nH]c2N1 (stereo not shown) [Example 34, 3-[1-(6-Chloropyridazin-3-yl)piperidin-4-yl]-4-hydroxy-4-(trifluoromethyl)-1,4,5,7-tetrahydro-6H-pyrazolo[3,4-b]pyridin-6-one]
  EC50: 150 nM

## N#Cc1ccc(N2CCC(c3n[nH]c4c3C(O)(C(F)(F)F)CC(=O)N4)CC2)cc1 (stereo not shown) [Example 35, 4-{4-[4-Hydroxy-6-oxo-4-(trifluoromethyl)-4,5,6,7-tetrahydro-1H-pyrazolo[3,4-b]pyridin-3-yl]piperidin-1-yl}benzonitrile]
  EC50: 380 nM

## COc1ccc(N2CCC(c3n[nH]c4c3C(O)(C(F)(F)F)CC(=O)N4)CC2)nc1 (stereo not shown) [Example 36, 4-Hydroxy-3-[1-(5-methoxypyridin-2-yl)piperidin-4-yl]-4-(trifluoromethyl)-1,4,5,7-tetrahydro-6H-pyrazolo[3,4-b]pyridin-6-one]
  EC50: 420 nM

## N#Cc1cncc(N2CCC(c3n[nH]c4c3C(O)(C(F)(F)F)CC(=O)N4)CC2)c1 (stereo not shown) [Example 37, 5-{4-[4-Hydroxy-6-oxo-4-(trifluoromethyl)-4,5,6,7-tetrahydro-1H-pyrazolo[3,4-b]pyridin-3-yl]piperidin-1-yl}pyridine-3-carbonitrile]
  EC50: 71 nM

## N#Cc1ncc(N2CCC(c3n[nH]c4c3C(O)(C(F)(F)F)CC(=O)N4)CC2)cc1F (stereo not shown) [Example 38, 3-Fluoro-5-{4-[4-hydroxy-6-oxo-4-(trifluoromethyl)-4,5,6,7-tetrahydro-1H-pyrazolo[3,4-b]pyridin-3-yl]piperidin-1-yl}pyridine-2-carbonitrile]
  EC50: 43 nM

## COc1ccnc(N2CCC(c3n[nH]c4c3C(O)(C(F)(F)F)CC(=O)N4)CC2)c1 (stereo not shown) [Example 39, 4-Hydroxy-3-[1-(4-methoxypyridin-2-yl)piperidin-4-yl]-4-(trifluoromethyl)-1,4,5,7-tetrahydro-6H-pyrazolo[3,4-b]pyridin-6-one]
  EC50: 330 nM

## COc1cncc(N2CCC(c3n[nH]c4c3C(O)(C(F)(F)F)CC(=O)N4)CC2)c1 (stereo not shown) [Example 40, 4-Hydroxy-3-[1-(5-methoxypyridin-3-yl)piperidin-4-yl]-4-(trifluoromethyl)-1,4,5,7-tetrahydro-6H-pyrazolo[3,4-b]pyridin-6-one]
  EC50: 1710 nM

## O=C1CC(O)(C(F)(F)F)c2c(C3CCN(c4ccc(C(F)(F)F)nc4)CC3)n[nH]c2N1 (stereo not shown) [Example 41, 4-Hydroxy-4-(trifluoromethyl)-3-{1-[6-(trifluoromethyl)pyridin-3-yl]piperidin-4-yl}-1,4,5,7-tetrahydro-6H-pyrazolo[3,4-b]pyridin-6-one]
  EC50: 26 nM

## Cc1cc(N2CCC(c3n[nH]c4c3C(O)(C(F)(F)F)CC(=O)N4)CC2)ncc1C#N (stereo not shown) [Example 42, 6-{4-[4-Hydroxy-6-oxo-4-(trifluoromethyl)-4,5,6,7-tetrahydro-1H-pyrazolo[3,4-b]pyridin-3-yl]piperidin-1-yl}-4-methylpyridine-3-carbonitrile]
  EC50: 140 nM

## O=C1CC(O)(C(F)(F)F)c2c(C3CCN(c4ccc(C(F)(F)F)nn4)CC3)n[nH]c2N1 (stereo not shown) [Example 43, 4-Hydroxy-4-(trifluoromethyl)-3-{1-[6-(trifluoromethyl)pyridazin-3-yl]piperidin-4-yl}-1,4,5,7-tetrahydro-6H-pyrazolo[3,4-b]pyridin-6-one]
  EC50: 56 nM
